According to patent US20240158448A1, “MULTIVALENT NANO-'SELF' PEPTIDES AND USES THEREOF” (THE TRUSTEES OF THE UNIVERSITY OF PENNSYLVANIA, priority 2021, published 2024):
“Also recorded” adds a separate entry of the source. No end group written: not given here.

Columns and labels:
[1] = test system: human THP-1 macrophages; test: In vitro phagocytosis assay: opsonized human RBCs engulfed by peptide-treated THP-1 macrophages; format: cell-based
Procedure: In vitro phagocytosis assay. Fresh human RBCs were washed twice with 50 mM EDTA (Thermo Fischer) in PBS (Gibco) then twice with 5% FBS in PBS. RBCs were opsonized with 20 μg/mL rabbit anti-human RBC antibody (Rockland) in 5% FBS for 1 hour at RT with shaking. For CD47 blocked RBCs, 5 μg/mL of mouse anti-human CD47 (B6H12; BD Biosciences) were added. Thereafter, RBCs were washed with PBS three times and stained with PKH26 dye (1:800 dilution in PBS; Sigma) for 1 hour at RT with shaking in the dark. RBCs were washed and resuspended in PBS.
THP-1 monocytes were PMA differentiated in RPMI for 48 hours. Macrophages were then washed with RPMI media three times. For SIRPα blocked THP-1 macrophages, 20 nM, 1 μM or 50 μM of the nano—Self peptides were incubated with the THP-1 macrophages for 1 hour at 37 ° C., 5% CO2 and 95% humidity. Those THP-Is were then washed with RPMI three times.
(§1) CO2 and 95% humidity. Macrophages were then washed with RPMI three times. Adherent and uninternalized RBCs were lysed with water for 30 seconds followed by immediate replacement with RPMI media. In order to distinguish remaining adherent RBCs from internalized RBCs, opsonized RBCs were stained with AlexaFluor 647 donkey anti-rabbit (binds to rabbit polyclonal opsonin on RBC; Invitrogen) IgG (1:1000) while unopsonized, CD47 blocked RBCs were stained with AlexaFluor 647 donkey anti-mouse (binds to mouse monoclonal anti-CD47 on RBCs; Invitrogen) IgG (1:1000) for 30 minutes. After washing, macrophages were fixed with 4% formaldehyde for 15 minutes at RT, washed with PBS, stained with 1 μg/mL Hoechst 33342, and then washed with PBS again. Fluorescence imaging was performed as described elsewhere herein and quantification was done using ImageJ. At least 200 cells were analyzed and experiments were repeated at least three times.

[2] = test system: mouse J774A.1 macrophages; test: In vitro phagocytosis assay: opsonized human RBCs engulfed by mouse J774A.1 macrophages; format: cell-based; details: for effect on phagocytosis of opsonized RBCs (words): saturating / 50 μM peptide
Procedure: as §1, with “In vitro phagocytosis assay. […] For CD47 blocked RBCs, 5 μg/mL of mouse anti-human CD47 (B6H12; BD Biosciences) were added. Thereafter, RBCs were washed with PBS three times and stained with PKH26 dye (1:800 dilution in PBS; Sigma) for 1 hour at RT with shaking in the dark. RBCs were washed and resuspended in PBS. J774A.1 macrophages were plated for 24 hours in RPMI. For SIRPα blocked J774A.1 macrophages, the same peptide blocking procedure as described elsewhere herein was used with the addition of a positive control using 5 μg/mL rat anti-mouse SIRPα ([…]; BD Biosciences). […] CO2” for “CO2”

[3] = test system: THP-1 macrophages; test: Phosphotyrosine (pTyr) staining of THP-1 macrophages; format: cell-based, human; details: 50 μM peptide
Procedure: Phosphotyrosine (pTyr) staining. THP-1 monocytes were PMA differentiated for 48 hours. Macrophages were washed with RPMI three times then incubated with 50 μM and 20 nM of either nS-F or nS-FF for 1 hour at 37° C., 5% CO2 and 95% humidity. The same conditions were replicated with the addition of 5 μg/mL anti-CD47. Excess peptide was washed with PBS then macrophages were fixed. […] After washing with PBS, the macrophages were incubated with 1:100 mouse anti-pTyr (Santa Cruz Biotechnology) for 1 hour at room temperature with shaking. Macrophages were washed with PBS then stained with AlexaFluor 488 donkey anti-mouse (1:1000; Invitrogen) and 1 μg/mL Hoechst 33342 for 1 hour with shaking then washed again. Fluorescence imaging and quantification was performed as described elsewhere herein.

[4] = test system: mouse bone marrow derived macrophages (BMDMs); test: Phagocytosis of anti-TYRP1 opsonized B16F10 melanoma cells by mouse bone marrow derived macrophages; format: cell-based; details: 50 μM peptide
Procedure: B16F10 cells: Bone marrow cells were isolated from femurs and tibias of healthy C57BL6/J mice (The Jackson Laboratory) and cultured in 10-cm petri dishes containing IMDM (Gibco) supplemented with 10% v/v FBS, 1% v/v penicillin/streptomycin, and 1:10,000 macrophage colony stimulating factor cytokine (M-CSF; Biolegend) for 7 days at 37° C., 5% CO2 and 95% humidity. All animal experiments were performed according to protocols approved by the University of Pennsylvania's IACUC (protocol #805977 and #804455). The resulting mouse bone marrow derived macrophages (BMDMs) were washed with PBS containing Ca2^+/Mg2^+ (Gibco) then detached with 0.25% trypsin-EDTA (Gibco) and re-plated in 6-well tissue culture plates using IMDM+M-CSF for 24 hours.
Mouse melanoma B16F10 cells were washed with PBS containing Ca2-/Mg2- and then trypsinized with 0.05% trypsin-EDTA. After washing twice with PBS, the cells were labeled with 1:10,000 CFDA—SE (Thermo Fisher) in PBS for 10 minutes. B16F10 cells were opsonized with 10 μg/mL anti-TYRP1 (TA99; Bio X Cell) in PBS for 2 hours at 4° C.with occasional inverting. For CD47 blocked B16F10 cells, 5 μg/mL of […] were added. During the incubation time, the BMDMs were washed with media then stained with 1:2,000 CellTracker Deep Red (Thermo Fisher) in PBS with Ca2^+/Mg2^+ for 10 min. After washing, 50 μM of the nano—Self peptides were incubated with the BMDMs for 1 hour at 37° C., 5% CO2 and 95% humidity. Finally, BMDMs were washed twice with PBS and then twice with serum-free IMDM.
Without removing the supernatant, the opsonized melanoma cells were added to the labeled BMDMs at a ratio of 2:1 for 2 hours at 37° C., 5% CO2 and 95% humidity. During the last 15 minutes of the assay, the cells were Hoechst stained. The wells were washed with serum free IMDM then fixed with 4% formaldehyde for 15 minutes at RT, and PBS washed. Fluorescence imaging was performed using an Olympus IX71 with a digital EMCCD camera (Cascade 512B) and a 40×/0.6 NA objective. Quantification was done with ImageJ (NIH). At least 200 cells were analyzed and two-tailed student's t-test was used to determine statistical significance.

[5] = test system: human THP-1 macrophages; test: Residual adhesion of opsonized RBCs to macrophages; format: cell-based; details: 50 μM peptide
Text: To measure the residual adhesion of RBCs and distinguish it from internalization by macrophages, the engulfment assay with human RBCs used a secondary antibody against the opsonizing IgG, which allowed us to clearly see RBCs in contact with macrophages that are not internalized (FIG. 29C). The cells are also firmly attached to the macrophages because the culture dishes were rinsed after fixation and secondary antibody labeling. […] All of the RBCs in these samples are equally opsonized with IgG that binds Fc-receptors (FcR's) on macrophages, and so differences in measured adhesion implicate differences in the CD47—SIRPα interaction.

[6] = test system: A549 (SIRPα positive) cells; test: Confocal live staining with FAM-labeled peptides, A549 cells; format: binding, human; details: 100 uM and 1 μM FAM-labeled peptide
Procedure: SIRPα staining and confocal imaging. THP-1 monocytes were PMA-differentiated in RPMI 1640 for 24 hours. J774A.1, A549, and COS-1 cells were plated for 24 hours in media, respectively. Cells were washed with respective media prior to addition of fluorescent peptides. The peptides were left to incubate for 1 hour at 37 ° C., 5% CO2 and 95% humidity. For fixed cell staining, cells were incubated with 4% formaldehyde (Pierce) for 15 minutes prior to the addition of fluorescent peptides whereas for live cell staining, fixation was done after incubation with the FAM-labeled peptides. Nuclei were stained with 1 μg/mL Hoechst 33342 (Invitrogen). Cells were the washed PBS three times before analysis. Fluorescence imaging of fixed cells was performed using an Olympus IX71 with a digital EMCCD camera (Cascade 512B) and a 40×/0.6 NA objective. […] Quantification was done with ImageJ (NIH).
In order to visualize the uneven binding of the peptides to the surface of the macrophages, a live staining experiment of THP-1, J774A.1, and A549 cells, which all express SIRPα at different levels, was performed with FAM-labeled nS-wt and nS-X and analyzed by confocal microscopy (FIG. 11). […] Fluorescence of nS-X was consistently lower on THP-1 and J774A.1 macrophages relative to nS-wt. […]

[7] = molecular target: T1, soluble human SIRPα (Homo sapiens, UniProt P78324); test: Binding of biotinylated peptides on streptavidin beads to soluble SIRPα
T1 construct: Soluble human SIRPα fused with glutathione s-transferase (SIRPα-GST); GST (glutathione S-transferase); made in house
Text: SIRPα Expression and Purification. Soluble human SIRPα fused with glutathione s-transferase (SIRPα-GST) was expressed and purified as previously published (Tsai, et al., 2008, J. Cell Biol. 180:989-1003).
Peptide biotinylation: NHS-biotin (Thermo Fischer) was mixed with nS-wt and nS-V, respectively, following the manufacturer's protocol. The biotinylated peptides were dialyzed against PBS.
Streptavidin-beads binding: Streptavidin-coated polystyrene beads of 2.1 μm radius (Spherotech) were washed and blocked 3x in PBS plus 0.4% BSA. nS-wt-biotin or nS-V-biotin were incubated with the beads for 1 hour at room temperature with shaking. Beads were washed with PBS, then incubated with recombinant SIRPα for 1 hour in ice. Streptavidin beads were labeled with rabbit anti-streptavidin-FITC (Invitrogen) and SIRPα was stained with mouse anti-SIRPα-allophycocyanin (anti-SIRPα-APC; Invitrogen).

T1 sequence (P78324 31-373 limits assumed): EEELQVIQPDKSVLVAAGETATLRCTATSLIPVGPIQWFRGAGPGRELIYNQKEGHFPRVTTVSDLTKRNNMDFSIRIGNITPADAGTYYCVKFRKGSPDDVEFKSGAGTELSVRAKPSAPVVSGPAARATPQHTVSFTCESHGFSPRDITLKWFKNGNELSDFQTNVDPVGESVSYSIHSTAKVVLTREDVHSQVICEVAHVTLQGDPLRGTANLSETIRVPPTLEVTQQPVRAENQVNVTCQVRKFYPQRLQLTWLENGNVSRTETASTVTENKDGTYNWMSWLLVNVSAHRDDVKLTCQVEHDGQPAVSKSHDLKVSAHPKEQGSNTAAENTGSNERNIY

Sequence | effect on phagocytosis of opsonized RBCs (words) ([1]; 20 nM peptide) | effect on phagocytosis of opsonized RBCs (words) ([1]; saturating / 50 μM peptide) | increase of macrophage phagocytosis relative to nS-wt ([1]; saturating peptide) | effect on phagocytosis of opsonized RBCs (words) [2] | effect on pTyr signal [3] | effect on phagocytosis of opsonized WT and SIRPα KO B16 cells [4] | residual adhesion of opsonized RBCs to macrophages [5] | effect on phagocytosis of opsonized RBCs (words) ([1]; saturating / 50 μM peptide, listed as nSX) | effect on pTyr signal ([3]; listed as nSX) | binding to A549 cells [6] | fold more active than the linear counterpart ([2]; mouse macrophages, opsonized RBCs) | SIRPα binding to peptide-coated beads [7]
VTELFREG (VTELFREG-NH2) [nS-F, nano-Self peptide with Thr to Phe mutation] | did not significantly change the amount of macrophage eating relative to anti-CD47 treatment; also recorded: only modest activity | significantly greater than any other peptide tested; also recorded: Maximum levels of phagocytic macrophages | roughly 25% | significantly greater than any other peptide tested | also suppressed pTyr | Maximum levels of phagocytic macrophages | lowest amount of residual adhesion to macrophages | – | – | – | – | –
LETVEGTR (LETVEGTR-NH2) [nS-X, scrambled control peptide] | – | no effect is observed; also recorded: unaffected; also recorded: do not affect baseline engulfment of opsonized RBCs; also recorded: does not affect opsonization-driven eating of RBCs | – | – | inhibition of phosphorylation is not observed | no effect; also recorded: does not affect opsonization-driven eating | predominantly adherent RBCs | do not have effects on phagocytosis | had no effect on pTyr | fluorescence was not observed at either concentration | – | –
CVELTREGC (HELM PEPTIDE1{C.V.E.L.T.R.E.G.C.[am]}$PEPTIDE1,PEPTIDE1,1:R3-9:R3$$$V2.0; N-terminus assumed; SMILES CC(C)C[C@@H]1NC(=O)[C@H](CCC(=O)O)NC(=O)[C@H](C(C)C)NC(=O)[C@@H](N)CSSC[C@@H](C(N)=O)NC(=O)CNC(=O)[C@H](CCC(=O)O)NC(=O)[C@H](CCCNC(=N)N)NC(=O)[C@H]([C@@H](C)O)NC1=O) [nS-Cyc] | – | greater effect in perturbing the CD47-SIRPα interaction compared to linear nS-wt; also recorded: slightly higher levels than opsonized and anti-CD47 blocked RBCs; also recorded: Maximum levels of phagocytic macrophages | – | slightly higher levels than opsonized and anti-CD47 blocked RBCs | – | Maximum levels of phagocytic macrophages | lowest amount of residual adhesion to macrophages | – | – | – | roughly 20 fold | –
VTELVREG [nS-V, VTELVREG] | did not significantly change the amount of macrophage eating relative to anti-CD47 treatment | activity profiles in phagocytosis assays that are similar to the monovalent nS-F | – | – | – | – | – | – | – | – | – | fluorescence is only observed in the presence of biotinylated peptide
